# Source: ChEMBL document CHEMBL1201862, “PubChem BioAssay data set” (2004)
# Calls of active or inactive are those of the source.
# Experiments:
# [1] = biological target: Ras and Rab interactor 1/Tyrosine-protein kinase ABL1 (Homo sapiens, UniProt P00519+Q13671); type: functional;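 also: biochemical TR-FRET dose-response test measuring inhibition of binding between Rin1 and Abl proteins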
# Cytochrome P450 3A4 = Cytochrome P450 3A4 (Homo sapiens, UniProt P08684);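 also: CYP3A4 tested as one member of a cytochrome P450 panel screen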
# Cytochrome P450 2D6 = Cytochrome P450 2D6 (Homo sapiens, UniProt P10635);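 also: CYP2D6 member of a cytochrome P450 panel assay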
# Cytochrome P450 2C9 = Cytochrome P450 2C9 (Homo sapiens, UniProt P11712)
# Large T antigen = Large T antigen (Simian virus 40, UniProt P03070); type: functional, Betapolyomavirus macacae;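 also: Confirmatory-stage PubChem screen for compounds that inhibit SV40 T antigen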
# cells = type: functional
# Insulin-degrading enzyme [2] = biological target: T1, Insulin-degrading enzyme (Homo sapiens, UniProt P14735); assay: activators of recombinant IDE enzyme, dose response, counter-screen for IDE activator project, biochemical, fluorescence polarization (AID 588681)
# T1 sequence (P14735 whole entry): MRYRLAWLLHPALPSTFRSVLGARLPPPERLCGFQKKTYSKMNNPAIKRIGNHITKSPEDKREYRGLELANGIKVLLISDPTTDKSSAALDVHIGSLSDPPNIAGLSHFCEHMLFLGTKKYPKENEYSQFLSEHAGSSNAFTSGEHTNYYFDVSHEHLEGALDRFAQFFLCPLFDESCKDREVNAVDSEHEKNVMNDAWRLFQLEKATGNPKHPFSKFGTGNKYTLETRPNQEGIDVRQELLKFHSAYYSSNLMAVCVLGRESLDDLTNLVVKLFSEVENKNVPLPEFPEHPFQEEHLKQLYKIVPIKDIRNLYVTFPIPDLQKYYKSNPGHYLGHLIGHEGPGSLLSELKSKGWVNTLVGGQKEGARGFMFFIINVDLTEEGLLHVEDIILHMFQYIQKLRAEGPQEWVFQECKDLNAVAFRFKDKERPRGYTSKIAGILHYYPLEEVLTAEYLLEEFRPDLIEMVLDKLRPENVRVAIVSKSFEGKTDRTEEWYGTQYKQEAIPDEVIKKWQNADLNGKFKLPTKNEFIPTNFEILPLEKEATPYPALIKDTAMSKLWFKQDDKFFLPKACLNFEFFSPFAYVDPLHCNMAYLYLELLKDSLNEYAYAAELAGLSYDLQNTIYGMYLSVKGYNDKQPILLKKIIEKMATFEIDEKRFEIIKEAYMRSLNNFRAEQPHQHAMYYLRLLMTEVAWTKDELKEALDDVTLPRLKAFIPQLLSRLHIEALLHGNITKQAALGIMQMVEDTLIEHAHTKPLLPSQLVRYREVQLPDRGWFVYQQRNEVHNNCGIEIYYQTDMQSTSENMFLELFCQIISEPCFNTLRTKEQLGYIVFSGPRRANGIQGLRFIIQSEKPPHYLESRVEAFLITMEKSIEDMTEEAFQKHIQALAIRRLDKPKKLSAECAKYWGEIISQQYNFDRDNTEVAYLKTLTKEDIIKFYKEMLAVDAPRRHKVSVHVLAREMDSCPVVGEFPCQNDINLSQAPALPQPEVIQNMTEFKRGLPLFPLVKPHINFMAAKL
# Insulin-degrading enzyme [3] = biological target: T1, Insulin-degrading enzyme; assay: activators of endogenous IDE in HEK cells, dose response, cell-based, fluorescence polarization (AID 588439); type: functional
# HEK293 [4] = assay: HEK cell cytotoxicity by LDH release, dose response, cytotoxicity control for IDE activator project, fluorescence, HEK cells (AID 588440); type: functional, cell-based; conditions: Homo sapiens;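 also: cytotoxicity by LDH release measuring loss of membrane integrity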
# HEK293 [5] = assay: optical interference in Abeta FP readout, dose response, artefact control for IDE activator project, biochemical, fluorescence polarization (AID 588442); type: functional, cell-based; conditions: Homo sapiens
# [6] = biological target: T2, Rac GTPase-activating protein 1 (Homo sapiens, UniProt Q9H0H5); assay: MgcRacGAP GTPase-activating activity inhibitors, confirmation, biochemical, ADP Hunter fluorescence, primary and confirmatory (AID 624330); type: functional
# T2 sequence (Q9H0H5 whole entry): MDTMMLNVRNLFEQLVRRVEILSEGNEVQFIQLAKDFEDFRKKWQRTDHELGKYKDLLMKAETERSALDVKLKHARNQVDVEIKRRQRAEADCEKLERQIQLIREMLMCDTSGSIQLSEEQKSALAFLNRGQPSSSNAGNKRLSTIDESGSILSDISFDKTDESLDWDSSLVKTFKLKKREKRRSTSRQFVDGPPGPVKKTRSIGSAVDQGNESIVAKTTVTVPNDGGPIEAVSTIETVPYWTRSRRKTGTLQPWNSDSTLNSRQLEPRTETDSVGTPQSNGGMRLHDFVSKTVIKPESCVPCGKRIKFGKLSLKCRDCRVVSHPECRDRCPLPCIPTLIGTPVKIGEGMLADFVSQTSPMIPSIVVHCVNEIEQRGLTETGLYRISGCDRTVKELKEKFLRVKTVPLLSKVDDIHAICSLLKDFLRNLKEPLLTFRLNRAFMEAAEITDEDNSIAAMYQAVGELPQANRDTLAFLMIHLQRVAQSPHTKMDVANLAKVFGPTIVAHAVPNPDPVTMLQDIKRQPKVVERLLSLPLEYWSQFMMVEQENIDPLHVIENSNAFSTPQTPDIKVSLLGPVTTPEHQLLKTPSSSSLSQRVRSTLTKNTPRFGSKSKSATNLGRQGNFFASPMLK
# [7] = biological target: T3, High affinity choline transporter 1 (Homo sapiens, UniProt Q9GZV3); assay: CHT inhibitors, dose response, cell-based, 5-point CRC, membrane potential dye (AID 504840); type: functional
# T3 sequence (Q9GZV3 whole entry): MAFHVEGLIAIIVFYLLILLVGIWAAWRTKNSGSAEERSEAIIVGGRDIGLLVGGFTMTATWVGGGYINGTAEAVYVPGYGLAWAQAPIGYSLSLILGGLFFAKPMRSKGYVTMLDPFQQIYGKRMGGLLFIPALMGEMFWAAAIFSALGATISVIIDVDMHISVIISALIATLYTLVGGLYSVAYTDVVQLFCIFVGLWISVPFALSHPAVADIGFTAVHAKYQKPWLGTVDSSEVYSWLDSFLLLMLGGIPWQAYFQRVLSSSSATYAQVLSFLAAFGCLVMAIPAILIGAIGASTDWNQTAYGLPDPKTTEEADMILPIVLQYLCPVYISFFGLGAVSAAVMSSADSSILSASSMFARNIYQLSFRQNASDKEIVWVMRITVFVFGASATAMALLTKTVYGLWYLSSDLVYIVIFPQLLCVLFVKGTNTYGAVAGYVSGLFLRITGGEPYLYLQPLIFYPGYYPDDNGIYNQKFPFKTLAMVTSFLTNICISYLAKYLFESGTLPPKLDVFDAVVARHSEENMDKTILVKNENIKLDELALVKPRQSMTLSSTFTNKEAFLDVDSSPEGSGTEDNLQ
# [8] = biological target: T3, High affinity choline transporter 1; assay: CHT inhibitors, dose response, cell-based, 10-point CRC, membrane potential dye (AID 588401); type: functional;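 also: membrane potential dye fluorescence of choline-evoked depolarization via CHT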
# [9] = tested on: Streptococcus sp. 'group A'; assay: growth inhibition of control SK(-) GAS strain, dose response, counter-screen for streptokinase expression inhibitor project, luminescence, kanamycin, BacTiterGlo, confirmation (AID 1900); type: functional, organism-based
# Streptokinase A = biological target: T4, Streptokinase A (Streptococcus pyogenes serotype M1, UniProt P10520); assay: S. pyogenes streptokinase expression inhibitors, potency, dose response, plasminogen activation absorbance, OD405 (AID 1914); type: functional, Streptococcus pyogenes M1 GAS;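 also: secreted streptokinase activity via plasminogen activation per viability signal from cell pellet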
# T4 sequence (P10520 whole entry): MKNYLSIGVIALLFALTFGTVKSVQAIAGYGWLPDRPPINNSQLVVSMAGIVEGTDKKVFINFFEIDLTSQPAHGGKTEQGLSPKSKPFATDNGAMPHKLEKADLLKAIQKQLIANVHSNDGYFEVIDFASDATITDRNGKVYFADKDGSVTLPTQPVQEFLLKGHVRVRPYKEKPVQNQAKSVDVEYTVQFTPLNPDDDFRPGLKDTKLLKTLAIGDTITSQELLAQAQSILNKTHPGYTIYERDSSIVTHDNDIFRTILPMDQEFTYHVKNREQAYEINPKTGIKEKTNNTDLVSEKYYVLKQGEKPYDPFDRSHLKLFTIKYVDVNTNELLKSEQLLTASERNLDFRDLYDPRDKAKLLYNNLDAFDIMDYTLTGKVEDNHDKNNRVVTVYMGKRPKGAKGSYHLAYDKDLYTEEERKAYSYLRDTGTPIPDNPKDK
# Streptococcus = assay: Group A Streptococcus viability loss, dose response, counter-screen for streptokinase expression inhibitor project, luminescence, BacTiterGlo (AID 1915); type: functional, organism-based;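 also: potency for reduction of bacterial viability or growth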
# [10] = biological target: G-protein coupled receptor 55 (Homo sapiens, UniProt Q9Y2T6); assay: GPR55 agonists via beta-arrestin recruitment, primary screen, imaging, U2OS cells, beta-arrestin-GFP redistribution (AID 1961); type: functional
# [11] = Luminescence Cell-Based Dose Retest to Confirm Inhibitors of Cancer Stem Cells. [Related pubchem assays (depositor defined):AID2717, AID2721]; type: functional; conditions: Homo sapiens
# [12] = biological target: Disintegrin and metalloproteinase domain-containing protein 17 (Homo sapiens, UniProt P78536); assay: ADAM17 protease inhibitors, dose response, counter-screen for ADAM10 exosite inhibitor project, biochemical, quenched FRET substrate (AID 743253)
# [13] = biological target: Mitogen-activated protein kinase 10 (Homo sapiens, UniProt P53779); assay: Dose response biochemical screening assay for inhibitors of c-Jun N-Terminal Kinase 3 (JNK3). [Related pubchem assays: 746 ]
# Sequence of Mitogen-activated protein kinase 10 (P53779 whole entry): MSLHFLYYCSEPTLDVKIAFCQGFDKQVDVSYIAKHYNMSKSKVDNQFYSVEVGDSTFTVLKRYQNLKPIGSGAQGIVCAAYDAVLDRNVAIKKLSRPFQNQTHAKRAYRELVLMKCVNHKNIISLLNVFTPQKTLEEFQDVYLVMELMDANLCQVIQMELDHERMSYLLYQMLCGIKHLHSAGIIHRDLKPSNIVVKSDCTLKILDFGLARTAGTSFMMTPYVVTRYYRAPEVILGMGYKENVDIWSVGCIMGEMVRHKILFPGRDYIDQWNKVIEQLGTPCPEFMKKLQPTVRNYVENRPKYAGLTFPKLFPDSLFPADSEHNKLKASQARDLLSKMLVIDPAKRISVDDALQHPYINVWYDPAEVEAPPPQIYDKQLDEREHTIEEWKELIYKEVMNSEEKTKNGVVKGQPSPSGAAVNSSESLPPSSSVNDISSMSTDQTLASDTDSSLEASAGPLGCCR
# Sequence of Large T antigen (P03070 whole entry): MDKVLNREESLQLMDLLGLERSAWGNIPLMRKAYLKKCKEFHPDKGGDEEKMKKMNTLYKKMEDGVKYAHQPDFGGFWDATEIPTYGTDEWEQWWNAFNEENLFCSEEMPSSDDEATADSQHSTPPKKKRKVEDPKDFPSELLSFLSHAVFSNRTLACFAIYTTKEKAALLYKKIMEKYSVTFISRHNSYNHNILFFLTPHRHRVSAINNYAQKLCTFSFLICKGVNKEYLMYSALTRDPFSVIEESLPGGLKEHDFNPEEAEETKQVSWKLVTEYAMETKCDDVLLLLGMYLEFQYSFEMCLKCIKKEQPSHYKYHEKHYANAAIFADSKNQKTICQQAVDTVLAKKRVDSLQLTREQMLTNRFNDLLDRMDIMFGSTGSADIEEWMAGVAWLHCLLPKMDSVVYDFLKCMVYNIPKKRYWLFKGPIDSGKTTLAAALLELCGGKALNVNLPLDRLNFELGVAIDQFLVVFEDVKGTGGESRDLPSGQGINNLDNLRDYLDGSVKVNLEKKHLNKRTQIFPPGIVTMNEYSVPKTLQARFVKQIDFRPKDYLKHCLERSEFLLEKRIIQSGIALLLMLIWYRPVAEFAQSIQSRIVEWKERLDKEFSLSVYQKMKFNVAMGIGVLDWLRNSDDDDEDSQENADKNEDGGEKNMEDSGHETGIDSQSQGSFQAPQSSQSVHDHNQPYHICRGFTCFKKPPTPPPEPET
# Sequence of Cytochrome P450 2C9 (P11712 whole entry): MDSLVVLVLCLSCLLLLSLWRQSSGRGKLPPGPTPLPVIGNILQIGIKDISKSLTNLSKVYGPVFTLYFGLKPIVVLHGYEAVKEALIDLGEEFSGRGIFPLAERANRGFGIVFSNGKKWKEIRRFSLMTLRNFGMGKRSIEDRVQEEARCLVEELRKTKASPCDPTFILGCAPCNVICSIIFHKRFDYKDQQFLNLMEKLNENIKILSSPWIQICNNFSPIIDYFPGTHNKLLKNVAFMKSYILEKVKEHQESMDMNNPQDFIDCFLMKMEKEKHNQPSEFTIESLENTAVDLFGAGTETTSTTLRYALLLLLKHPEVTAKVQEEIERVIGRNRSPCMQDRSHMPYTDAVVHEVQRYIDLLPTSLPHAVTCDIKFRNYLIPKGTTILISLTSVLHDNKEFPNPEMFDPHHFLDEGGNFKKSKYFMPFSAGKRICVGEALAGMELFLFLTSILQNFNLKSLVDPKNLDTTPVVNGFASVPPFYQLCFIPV
# Sequence of Cytochrome P450 3A4 (P08684 whole entry): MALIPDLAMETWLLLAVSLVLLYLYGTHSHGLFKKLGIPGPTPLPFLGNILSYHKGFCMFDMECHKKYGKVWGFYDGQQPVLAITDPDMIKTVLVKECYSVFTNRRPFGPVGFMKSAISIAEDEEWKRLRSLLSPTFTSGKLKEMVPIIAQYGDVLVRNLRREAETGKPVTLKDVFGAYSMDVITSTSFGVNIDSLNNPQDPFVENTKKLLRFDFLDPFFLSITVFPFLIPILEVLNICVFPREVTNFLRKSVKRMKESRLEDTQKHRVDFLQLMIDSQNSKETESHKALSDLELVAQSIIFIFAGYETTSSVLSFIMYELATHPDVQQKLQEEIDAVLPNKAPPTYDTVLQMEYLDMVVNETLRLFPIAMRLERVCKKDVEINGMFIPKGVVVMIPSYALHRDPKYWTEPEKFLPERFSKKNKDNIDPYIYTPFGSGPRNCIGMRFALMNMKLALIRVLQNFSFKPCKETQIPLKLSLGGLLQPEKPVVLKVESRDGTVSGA
# Sequence of G-protein coupled receptor 55 (Q9Y2T6 whole entry): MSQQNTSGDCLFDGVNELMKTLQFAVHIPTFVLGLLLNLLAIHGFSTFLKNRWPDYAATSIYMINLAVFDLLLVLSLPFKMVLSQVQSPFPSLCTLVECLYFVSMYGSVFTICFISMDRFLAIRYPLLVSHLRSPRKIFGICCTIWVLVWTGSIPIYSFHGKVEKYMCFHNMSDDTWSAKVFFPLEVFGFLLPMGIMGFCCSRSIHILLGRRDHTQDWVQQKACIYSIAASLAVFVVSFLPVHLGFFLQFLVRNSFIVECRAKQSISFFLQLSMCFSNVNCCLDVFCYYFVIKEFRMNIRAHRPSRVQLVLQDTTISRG
# Sequence of Cytochrome P450 2D6 (P10635 whole entry): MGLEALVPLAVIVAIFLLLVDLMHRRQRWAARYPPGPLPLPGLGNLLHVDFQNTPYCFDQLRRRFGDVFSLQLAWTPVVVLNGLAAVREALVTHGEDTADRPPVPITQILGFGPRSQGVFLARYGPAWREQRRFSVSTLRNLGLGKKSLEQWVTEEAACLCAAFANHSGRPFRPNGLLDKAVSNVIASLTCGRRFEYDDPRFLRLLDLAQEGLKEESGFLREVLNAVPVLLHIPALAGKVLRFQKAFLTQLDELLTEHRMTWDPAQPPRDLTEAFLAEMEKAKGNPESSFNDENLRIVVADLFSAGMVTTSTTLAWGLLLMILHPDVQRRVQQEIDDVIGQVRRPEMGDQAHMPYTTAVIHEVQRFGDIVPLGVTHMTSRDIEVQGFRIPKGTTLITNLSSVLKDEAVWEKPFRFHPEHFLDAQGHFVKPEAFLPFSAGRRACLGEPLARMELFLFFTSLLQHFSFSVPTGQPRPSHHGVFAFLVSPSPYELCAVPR
# Sequence of Disintegrin and metalloproteinase domain-containing protein 17 (P78536 whole entry, the tested form may be a part): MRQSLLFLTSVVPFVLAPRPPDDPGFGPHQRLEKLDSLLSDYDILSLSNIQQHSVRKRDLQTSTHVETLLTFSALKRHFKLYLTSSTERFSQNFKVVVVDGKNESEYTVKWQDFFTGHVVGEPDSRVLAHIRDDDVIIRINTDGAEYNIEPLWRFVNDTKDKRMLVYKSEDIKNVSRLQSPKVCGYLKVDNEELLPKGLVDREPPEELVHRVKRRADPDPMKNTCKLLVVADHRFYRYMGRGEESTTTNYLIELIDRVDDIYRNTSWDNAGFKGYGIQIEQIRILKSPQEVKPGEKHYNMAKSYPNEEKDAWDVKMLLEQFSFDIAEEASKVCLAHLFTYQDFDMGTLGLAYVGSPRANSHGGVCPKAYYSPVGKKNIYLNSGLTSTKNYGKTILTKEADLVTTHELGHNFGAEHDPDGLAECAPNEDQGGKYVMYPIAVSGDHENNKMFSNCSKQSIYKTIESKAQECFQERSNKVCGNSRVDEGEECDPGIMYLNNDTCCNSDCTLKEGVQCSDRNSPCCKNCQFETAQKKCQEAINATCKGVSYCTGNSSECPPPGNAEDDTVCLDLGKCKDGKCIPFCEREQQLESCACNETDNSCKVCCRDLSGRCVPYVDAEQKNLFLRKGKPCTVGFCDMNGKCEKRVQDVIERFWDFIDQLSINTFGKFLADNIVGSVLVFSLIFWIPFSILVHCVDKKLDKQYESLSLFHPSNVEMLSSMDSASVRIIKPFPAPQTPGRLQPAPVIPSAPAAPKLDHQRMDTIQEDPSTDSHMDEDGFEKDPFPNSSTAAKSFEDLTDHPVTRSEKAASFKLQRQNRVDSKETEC
compound,measurement,setting,value
COCCNC(=O)c1cc2c3ccccc3n(C)c2s1,IC50,[1],14.6 µM (inactive)
same,AC50,Cytochrome P450 3A4,28.2 µM (inconclusive)
same,AC50,Cytochrome P450 2D6,inconclusive
same,AC50,Cytochrome P450 2C9,inconclusive
C/C(CC(=O)Nc1ccc(N(C)C)cc1)=N\NC(=O)c1ccncc1,IC50,Large T antigen,13.7 µM (active)
same,IC50,cells,0.31 µM (active)
same,EC50,Insulin-degrading enzyme [2],26 µM (inactive)
same,EC50,Insulin-degrading enzyme [3],> 54.7 µM (inactive)
same,IC50,HEK293 [4],> 89.2 µM (inactive)
same,EC50,HEK293 [5],> 55.9 µM (inactive)
same,IC50,[6],56.8 µM (active)
Cc1cc(NS(=O)(=O)c2ccc(NC(=O)C(C)Oc3cccc(C)c3C)cc2)nc(C)n1 (stereo unspecified),IC50,[7],10 µM (active)
same,IC50,[8],7.23 µM (active)
C=C(C)COc1ccc(-c2n[nH]cc2Oc2ccc(OC)cc2)c(O)c1,EC50,[9],6.87 µM (active)
same,EC50,Streptokinase A,37.4 µM (active)
same,EC50,Streptococcus,25.8 µM (active)
same,EC50,[10],> 32 µM (inactive)
same,AC50,[11],5.47 µM (active)
same,EC50,Insulin-degrading enzyme [2],> 54.7 µM (inactive)
same,EC50,Insulin-degrading enzyme [3],20.7 µM (inactive)
same,IC50,HEK293 [4],31.4 µM (inactive)
same,EC50,HEK293 [5],> 54.7 µM (inactive)
same,IC50,[12],12 µM (inactive)
O=C(Nc1cccnc1)c1ccc(COc2ccccc2Br)o1,IC50,[13],> 93.1 µM (not active)
same,IC50,[7],3.28 µM (active)
same,IC50,[8],1.5 µM (active)
